Laboratory results published in patent publication US12643867B2, “Compositions and uses thereof” (University of Virginia Patent Foundation, priority 2017, dated 2026).

Tests used:
recombinant DGKα [1] = target: T1, recombinant DGKα (Rattus norvegicus, UniProt P51556); experiment: ADP-glo DAG phosphorylation substrate assay; assay type: biochemical
T1 construct: expressed in transfected cells; host or cells: HEK293T (SILAC HEK293T for LC-MS)
Method: The ADP-Glo DAG phosphorylation substrate assay was adapted from Sato et al (Sato et al., 2013). Transfected HEK cells expressing recombinant FLAG-DGKA were harvested in DPBS and centrifuged at 1400×g for 3 min. Supernatant was removed and 1 mL Lysis Buffer (50 mM HEPES (pH 7.2), 150 mM NaCl, 5 mM MgCL2, 1 mM DTT, 1 mM phenylmethylsulfonyl […], Phosphatase Inhibitor Cocktail 2 (Sigma-Aldrich), and EDTA-Free Protease Inhibitor Mini Tablets (Pierce)) was added and cells re-suspended. Solutions were sonicated (3×1 sec pulse, 20% amplitude) and then centrifuged at 400×g for 5 min. Supernatant was separated and protein concentrations were measured using the Bio-Rad DC protein assay and diluted in Lysis Buffer as appropriate. Samples were stored at −80° C. until use.
Micelles were prepared from lipid stocks as follows: Reaction Buffer (50 mM MOPS (pH 7.4). 1 mM DTT. 100 mM NaCl. 20 mM NaF, and |μM CaCl2)) was prepared in ddH2O. […] 1,2-dioleoyl-sn-glycerol (DG) and 1.2-dioleoyl-sn-glycero-3-phospho-L-serine (DOPS) in chloroform were mixed and then dried under nitrogen. Triton Buffer was added to the dried lipids to a final concentration of 10 mM DG and 8 mM DOPS. This solution was incubated at room temperature for 5 min with gentle shaking, followed by sonication (3×1 sec pulse, 20% amplitude). The micelles were then diluted 4-fold in reaction buffer to yield the final micelle buffer. […] of lysate was aliquoted into each well of a 96 well plate, followed by micelle buffer to a final volume of 20 μL. 19 μL of this mix was added to 1 μL of DMSO or inhibitor solution and incubated at 30° C. for 30 min. After incubation, 5 μL of reaction initiator was added to each well and mixed thoroughly, followed by aliquoting 5 μL of each reaction mixture to a 96-well half area black polystyrene plate and incubated at 30° C. for 30 min. At this point the procedure for the ADP-GloTM assay (Promega) was performed. 5 μL of ‘ADP-Glo Reagent’ was added to each well, mixed thoroughly, and allowed to incubate at 25° C. for 40 min. Then 10 μL of the ‘Kinase Detection Reagent’ was added to each well, mixed thoroughly, and allowed to incubate at 25° C. for 40 min. Luminescence was measured with no filter and an integration time of 1 sec per well on a BMG Labtech CLARIOstar plate reader.
(§1) The percentage of enzyme activity remaining was determined by comparing integrated band intensities or luminescence of inhibitor—with DMSO-treated samples for gel-based chemical proteomic or ADP-glo assays, respectively. For both chemical proteomic and ADP-glo methods, nonlinear regression analysis was used to determine the IC50 values from a dose-response curve generated using GraphPad Prism. Data are shown as mean±s.e.m. Determination of significance was performed by one-way ANOVA. All statistical analyses were performed using GraphPad Prism.

recombinant DGKα [2] = target: T1, recombinant DGKα; experiment: Gel-based ATP acyl phosphate chemical proteomic assay; assay type: binding; details: for blockade of DGKα ATP probe labeling: compounds 100 μM (ATP 1 mM; RF001 at indicated concentrations), probe 10 μM
Method: Cell pellets were resuspended in kinase buffer (Dulbecco's PBS (DPBS, Hyclone), 20 mM MgCl2, EDTA-free protease inhibitors (Pierce)) and then lysed by sonication (3×1 sec pulse, 20% amplitude). The cell lysates were then subjected to centrifugation (100,000×g, 45 min at 4° C.) to isolate the cytosolic fraction in the supernatant and the membrane fraction as a pellet. The membrane pellet was resuspended in kinase buffer by sonication. […] The only exception was experiments involving DGKE; recombinant DGKE protein was most prominently expressed in the membrane fraction and so this fraction was utilized to study DGKE enzyme (see FIG. 8). Protein concentrations were measured using the Bio-Rad DC protein assay. Samples were stored at −80° C. until use.
Proteome concentration was adjusted to 2 mg/mL in kinase buffer. Proteomes were first pre-treated with compound (0.6 μL, 50× stock in DMSO) mixed with gentle flicking, and incubated for 30 min at 25° C. in a microfuge tube (30 μL reaction volume). […] Reactions were then quenched with 10 AL of 4×SDS-PAGE loading buffer. Protein samples (15 μL) were loaded onto 4-20% TGX Stain-Free Protein Midi Gel and resolved by SDS-PAGE at 150V for 55 min. Proteins were then transferred to a nitrocellulose blot by Bio-Rad Trans-Blot Turbo Transfer System (25V. 10 min) to enhance sensitivity. The nitrocellulose blot was then incubated in blocking solution (30 mL, 3% BSA in TBS-T) for 1 h at 25° C. with gentle shaking. The blot was then transferred immediately to antibody solution (30 mL, 5% BSA in ddH2O with 0.1% Tween20 and 1:3000 Streptavidin DyLight 550) and incubated for 2 h at 25° C. with gentle shaking. The blot was then rinsed 5 times for 5 min in TBS-T. and then transferred into ddH2O. The blot was then imaged by in-blot fluorescence scanning on a ChemiDoc MP Imaging System. Fluorescence intensity signals were normalized to total lane protein using the Bio-rad Stain Free imaging (Posch et al., 2013).
as §1

Zeta (DGK zeta) = Zeta (DGK zeta) (Homo sapiens, UniProt Q13574); experiment: DGK isoform % Activity screen; assay type: biochemical
[3] = target: Alpha (DGK alpha; only in reference sheet cells) (Rattus norvegicus, UniProt P51556); experiment: DGK isoform % Activity screen; assay type: biochemical; details: for activity at 100 µM: read-out: 100 uM % Activity (section without isoform head; Alpha)
[4] = DGKα-HEK293T proteome, read-out: IC50, DGKα inhibition, DAG phosphorylation substrate assay
[5] = read-out: 95% confidence intervals for IC50 values, substrate assay

Chain of Alpha (DGK alpha; only in reference sheet cells) (P51556 whole entry, canonical isoform): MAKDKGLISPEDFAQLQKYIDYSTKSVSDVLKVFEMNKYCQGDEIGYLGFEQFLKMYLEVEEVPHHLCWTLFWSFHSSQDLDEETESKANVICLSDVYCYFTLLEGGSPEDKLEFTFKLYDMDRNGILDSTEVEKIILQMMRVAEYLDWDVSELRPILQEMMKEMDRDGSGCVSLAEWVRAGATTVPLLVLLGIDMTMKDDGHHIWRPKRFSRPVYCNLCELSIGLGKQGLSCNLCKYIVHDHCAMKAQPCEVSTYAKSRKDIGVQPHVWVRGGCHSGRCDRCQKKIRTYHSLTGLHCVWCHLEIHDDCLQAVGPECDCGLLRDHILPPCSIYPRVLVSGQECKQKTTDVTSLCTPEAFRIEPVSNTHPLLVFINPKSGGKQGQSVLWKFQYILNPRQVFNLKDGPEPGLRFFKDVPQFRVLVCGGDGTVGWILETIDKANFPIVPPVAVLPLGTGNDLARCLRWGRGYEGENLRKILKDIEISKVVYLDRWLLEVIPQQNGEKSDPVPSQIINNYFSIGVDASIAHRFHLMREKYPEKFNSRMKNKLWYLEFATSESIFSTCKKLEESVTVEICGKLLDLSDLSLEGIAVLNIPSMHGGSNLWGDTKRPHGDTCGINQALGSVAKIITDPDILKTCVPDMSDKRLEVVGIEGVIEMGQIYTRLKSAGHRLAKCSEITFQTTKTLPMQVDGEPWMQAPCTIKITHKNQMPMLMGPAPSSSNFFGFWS
T1 sequence (P51556 whole entry): as the sequence (P51556 whole entry, canonical isoform) above
Chain of Zeta (DGK zeta) (Q13574 whole entry, canonical isoform): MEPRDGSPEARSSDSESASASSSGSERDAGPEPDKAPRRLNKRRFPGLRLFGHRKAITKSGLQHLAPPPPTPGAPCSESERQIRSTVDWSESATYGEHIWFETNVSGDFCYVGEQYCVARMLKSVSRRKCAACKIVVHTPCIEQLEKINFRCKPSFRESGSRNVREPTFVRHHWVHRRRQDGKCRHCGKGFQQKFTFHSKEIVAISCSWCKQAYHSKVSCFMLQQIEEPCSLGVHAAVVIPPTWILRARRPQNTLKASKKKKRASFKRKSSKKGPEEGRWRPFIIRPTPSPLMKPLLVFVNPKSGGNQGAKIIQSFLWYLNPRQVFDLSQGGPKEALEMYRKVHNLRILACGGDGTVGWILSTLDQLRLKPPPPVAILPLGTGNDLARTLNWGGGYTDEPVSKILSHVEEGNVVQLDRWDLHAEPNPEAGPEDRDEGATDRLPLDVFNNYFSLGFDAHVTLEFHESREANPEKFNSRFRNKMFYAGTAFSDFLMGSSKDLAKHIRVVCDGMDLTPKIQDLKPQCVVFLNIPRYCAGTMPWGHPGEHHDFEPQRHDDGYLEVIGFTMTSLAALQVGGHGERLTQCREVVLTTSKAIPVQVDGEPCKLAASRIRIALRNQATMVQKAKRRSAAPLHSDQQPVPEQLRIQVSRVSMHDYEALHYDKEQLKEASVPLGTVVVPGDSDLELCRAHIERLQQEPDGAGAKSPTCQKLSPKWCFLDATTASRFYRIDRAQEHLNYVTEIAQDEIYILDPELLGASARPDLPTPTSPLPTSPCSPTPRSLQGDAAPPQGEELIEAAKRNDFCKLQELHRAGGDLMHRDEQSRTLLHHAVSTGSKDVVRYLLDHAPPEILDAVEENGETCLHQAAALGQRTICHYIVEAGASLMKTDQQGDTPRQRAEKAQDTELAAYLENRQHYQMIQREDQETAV

In the case of `O=C(c1ccc(F)cc1)C1CCN(CCn2c(=O)[nH]c3ccccc3c2=O)CC1` [Ketanserin], the “activity against DGKα in the substrate assay” value (recombinant DGKα [1]; 100 μM) is reported as “negligible activity”, the “blockade of DGKα ATP probe labeling” value (recombinant DGKα [2]; 30 min) is reported as “not ketanserin” and the activity at 100 µM (Zeta (DGK zeta)) is reported as 90%. It also gave an activity at 100 µM [3] of 99%.
`Fc1ccc(C(=C2CCNCC2)c2ccc(F)cc2)cc1` [RF001, 4-(Bis(4-fluorophenyl)methylene) piperidine] gave an IC50 (recombinant DGKα [1]; [4]) of 223 µM, an IC50 (recombinant DGKα [1]; [5]) of 120 to 414 µM and an inhibition at 1000 µM (recombinant DGKα [2]; 1 mM, read-out: inhibition of DGKα activity in the probe-binding assay) of over 80%. For the same compound, the “blockade of DGKα ATP probe labeling” value (recombinant DGKα [2]; 30 min) was “blocked probe labeling in a concentration-dependent manner”, the activity at 100 µM (Zeta (DGK zeta)) was 80% and the activity at 1000 µM (Zeta (DGK zeta); read-out: 1 mM % Activity, Zeta) was 0%. It also gave an activity at 100 µM [3] of 75% and an activity at 1000 µM ([3]; read-out: 1 mM % Activity (section without isoform head; Alpha)) of 0%.
With `Cc1nc2sccn2c(=O)c1CCN1CCC(=C(c2ccc(F)cc2)c2ccc(F)cc2)CC1` [Ritanserin] the “blockade of recombinant DGKα activity” value (recombinant DGKα [1]; 100 μM compound) was about 80%, the “blockade of DGKα activity” value (recombinant DGKα [1]; 100 μM, from substrate- and chemical proteomic-assays) was about 70% and the IC50 (recombinant DGKα [1]; [4]) was 25 µM. For the same compound, the IC50 (recombinant DGKα [1]; [5]) was 20 to 30 µM, the IC50 (recombinant DGKα [2]; IC50, blockade of ATP probe labeling of DGKα (gel-based), 10 μM ATP probe, 30 min) was 57 µM and the “blockade of DGKα ATP probe labeling” value (recombinant DGKα [2]; 30 min) was “blocked probe labeling”. It also gave an IC50 (recombinant DGKα [2]; read-out: 95% confidence intervals for IC50 values, gel-based assay) of 17 to 192 µM, an activity at 100 µM (Zeta (DGK zeta)) of 86% and an activity at 100 µM [3] of 52%.
